# From patent US20250043353A1, “BIOMARKERS OF RESPONSE TO SELECTIVE INHIBITORS OF AURORA A KINASE” (Millennium Pharmaceuticals, Inc., priority 2015, published 2025)
# Experiments:
# [1] = tested on: advanced solid tumor types; assay: association of somatically mutated genes/pathways (whole exome sequencing) with response to alisertib in trial patients; assay type: in vivo, human; conditions: for est: HR (hazard ratio) for progression free survival (PFS): adjusted by baseline, stratified by indication; for est: mean % best tumor size change between mutant and WT groups: all five tumor types, adjusted by tumor indication and tumor baseline size
# Source text: The best tumor size change and progression-free survival (PFS) of the patients were used as the efficacy response endpoints.
# The genomic DNA was isolated from 47 patients with 2-4 slides of 5 micron thickness from archived tumor biopsies with Qiagen FFPE kit (Qiagen, Germany). Genomic DNA from blood samples were extracted utilizing blood DNA kit (Qiagen, Germany). Tumor-normal (blood) paired DNAs were sequenced by whole exome DNA sequencing employing Agilent SureSelect exome capture and Illumina Hi-Seq™ technologies.
# The downstream analysis was designed to identify potential biomarkers predictive of drug response using the high-confidence mutations obtained from the middle-stream analysis. A linear regression model and Cox proportional hazard model were used for best tumor size change and PFS as endpoints, respectively. Tumor type was considered as a covariate in both models to adjust its confounding effect. In case of linear regression for best tumor size change as an endpoint, baseline tumor size was added as an additional covariate since baseline tumor size is […] correlated with the endpoint. In the following linear regression equation, y=β0+β1x+βc1c1+βc2c2+ε, y, x, c1, c2, and c represent the best tumor size change, a single gene mutation status, tumor type, baseline tumor size, and random error, respectively. When the gene harbors high-confidence mutation(s), x becomes 1; otherwise, it is 0. The 1st covariate c1 was converted into five binary variables to represent the five different tumor types and the 2nd covariate c2 is a continuous variable. As a result, the coefficient fi indicates the contribution of the mutated gene to sensitivity or resistance to alisertib treatment after adjusting the potential confounding effects of the covariates. A p-value was computed for testing the null hypothesis β1=0. Since multiple genes were tested using these models and the p-values were corrected for multiple hypothesis testing using false discovery rate (FDR).
# A similar approach was used for the pathway association analysis. A pathway can be defined as a group of genes that are known to be interacting together for a common biological function. […] Two types of statistical tests were selected in order to test the degree of association of mutations on the pathway level and alisertib treatment outcome, particularly best tumor size change. […] A linear regression model was built using this binary variable as an independent variable and tumor type and baseline tumor size were used as covariates, similar to the equation used for gene-level association. Secondly, sequence kernel association tests (SKAT) were run to account for cases where individual mutated genes in a pathway contribute differently to drug sensitivity or resistance. […] As the two methods, linear regression and SKAT, provide different angles in terms of association between pathways and alisertib response, the smaller p-value (the best of the two tests, BOT from here on) was selected as a representative p-value for each pathway. The p-values of the pathways were subjected to multiplicity adjustments in order to control the type I error of the statistical tests.
# The Cox proportional hazard models were used to see potential association between mutated genes/pathways and progression-free survival (PFS).
# For single gene-level association, the Benjamini & Hochberg (BH) method was used to compute FDR (also known as q-value). For pathway-level association, as multiple statistical association analyses (linear regression, SKAT and BOT) were conducted for each pathway, and pathways are often correlated through commonly present genes, multiplicity adjustment becomes more complicated. To address these challenges, a re-sampling-based multiplicity adjustment was implemented. The null distributions of p-values from pathway association tests were simulated using parametric bootstrapping. […]
# [2] = tested on: advanced solid tumor types; conditions: patients with relapsed/refractory BC, SCLC, NSCLC, HNSCC, GE adenocarcinoma; activity in all except NSCLC; cited from earlier work
structure (smiles),measurement,setting,value
"COc1cc(Nc2ncc3c(n2)-c2ccc(Cl)cc2C(c2c(F)cccc2OC)=NC3)ccc1C(=O)O [alisertib, 4-{[9-chloro-7-(2-fluoro-6-methoxyphenyl)-5H-pyrimido[5,4-d][2]benzazepin-2-yl]amino}-2-methoxybenzoic acid]",est: HR (hazard ratio) for progression free survival (PFS),[1]; EP300 mutated vs WT,0.271
same,est: mean % best tumor size change between mutant and WT groups,[1]; FAT1 mutated,−39.70%
same,est: mean % best tumor size change between mutant and WT groups,[1]; FBXW7 mutated,41.96%
same,est: HR (hazard ratio) for progression free survival (PFS),[1]; MLL3 mutated vs WT,0.129
same,est: mean % best tumor size change between mutant and WT groups,[1]; MLL3 mutated,−28.84%
same,response (best tumor size change) of patients with mutated pathway versus wild type,[1]; patients with mutated WNT or Hippo signaling pathways vs WT,respond more favorably
same,single agent antitumor activity,[2],clinically meaningful antitumor activity in four of the five solid tumor types
